Data: patent publication US8637684B2, “Tautomycetin and tautomycetin analog biosynthesis” (Wisconsin Alumni Research Foundation, priority 2010, dated 2014)
Read-outs that look alike come from different tables or passages of the source.

Columns and labels:
SHP1 = SHP1 (Homo sapiens, UniProt P29350); assay: PTP activity assay with pNPP as substrate: SHP1; type: biochemical; settings: pNPP as substrate at Km, pH 7.0, 25° C., I = 0.15 M
Procedure: (§3) The PTP activity was assayed using pNPP as a substrate at 25° C. in 50 mM 3,3-dimethylglutarate buffer, pH 7.0, containing 1 mM EDTA with an ionic strength of 0.15 M adjusted by NaCl. TTM, TTN and the engineered analogs were analyzed for inhibition of a panel of PTPs at 10 μM compound concentration. For each enzyme screened, test compounds were diluted to 20 μM in 100 μL and combined with 50 μL pNPP at a concentration of 4×Km. The reaction was initiated by the addition of 50 μL of 4× concentrated enzyme and pNPP was allowed to convert to the product p-nitrophenol. The reaction was quenched by the addition of 50 μL of 5N NaOH. Nonenzymatic hydrolysis of pNPP was corrected by measuring the control without the addition of enzyme. Production of p-nitrophenol was monitored by a Spectra MAX385 microplate spectrophotometer (Molecular Devices) at 405 nm using a molar extinction coefficient of 18,000 M^−1 cm^−1. IC50 values were calculated by fitting the absorbance at 405 nm versus inhibitor concentration to the following equation: AI/A0=IC50/(IC50+[I]) where AI is the absorbance at 405 nm of the sample in the presence of inhibitor; Ao is the absorbance at 405 nm in the absence of inhibitor; and [I] is the concentration of the inhibitor.

[1] = test system: TCR-mediated tyrosine phosphorylation in Jurkat T cells; assay: Anti-CD3 (TCR) induced tyrosine phosphorylation in Jurkat T cells, immunoblot; type: cell-based; settings: 2-4 μM, 2 hours pretreatment, anti-CD3 stimulation
Procedure: (§1) Jurkat T cells were grown at 37° C. under an atmosphere of 5% CO2 in RPMI medium 1640 supplemented with 10% FBS. Cells were pretreated with different concentrations of TTN, TTN D-1, or TTM for 2 hours and stimulated with […] anti-CD3 antibody (OKT3; eBioscience) for 5 min and 30 min, respectively. Subsequently, cells were spinned down at 2000 rpm in 4° C., and cell pellets were lysed in 50 mM Tris-HCl (pH 7.5), 150 mM NaCl, 10% glycerol, 1% NP-40, 50 mM NaF, 10 mM pyrophosphate, 5 mM idoacetate, 1 mM sodium orthovanadate, and the protease inhibitor mixture. After 30 min lysing on ice, the cell lysates were centrifuged at 13,200 rpm for 15 min. Total cellular proteins were separated by SDS/PAGE and transferred electrophoretically to nitrocellulose membrane, which was immunoblotted by appropriate antibodies followed by incubation with HRP-conjugated secondary antibodies. Blots were developed using Pierce Pico ECL reagent (Thermo) according to the manufacturer's instructions.
(§2) TTN induces immunosuppression by suppression of TCR-mediated tyrosine phosphorylation and ERK1/2 activity in T cells (Shim et al., 2002). However, the mechanism of action for TTN's ability to block TCR signaling remains undefined. […]

SHP2 = target: T1, SHP2 (Homo sapiens, UniProt Q06124); assay: Ki measurement, steady-state kinetic analysis of SHP2-catalyzed pNPP hydrolysis; type: biochemical
T1 construct: The expression and purification of the SHP2 catalytic domain (residues 262-528) were described previously; made in house
T1 sequence (Q06124 262-528): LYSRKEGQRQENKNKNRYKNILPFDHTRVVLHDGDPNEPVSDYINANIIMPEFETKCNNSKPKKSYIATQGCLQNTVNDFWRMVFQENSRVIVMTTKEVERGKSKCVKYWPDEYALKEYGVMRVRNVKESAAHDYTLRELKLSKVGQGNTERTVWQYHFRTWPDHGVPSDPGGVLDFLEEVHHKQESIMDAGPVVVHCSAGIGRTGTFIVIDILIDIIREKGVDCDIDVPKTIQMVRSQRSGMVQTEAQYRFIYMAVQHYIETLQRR
Procedure: The SHP2-catalyzed hydrolysis of pNPP in the presence of TTN or TTN D-1 was assayed at 25° C. and in the assay buffer described above. The mode of inhibition and K, value were determined in the following manner. At various fixed concentrations of the inhibitor (0-3 Ki), the initial rate at a series of pNPP concentrations was measured by following the production of p-nitrophenol as describe above, ranging from 0.2- to 5-fold the apparent Km values. The data were fitted to appropriate equations using SigmaPlot-Enzyme Kinetics to obtain the inhibition constant and to assess the mode of inhibition.
To further characterize SHP2 inhibition by the TTN and TTN D-1, the IC50 values for TTN and TTN D-1 were measured at a pNPP concentration fixed at the experimentally determined Km for each PTP. […] To establish the mechanism of SHP2 inhibition by TTN and TTN D-1, the inhibition constants and mode of inhibition were determined by steady-state kinetic analysis of the SHP2-catalyzed reaction.

PTPα = PTPα (Homo sapiens, UniProt P18433); assay: PTP activity assay with pNPP as substrate: PTPα; type: biochemical; settings: pNPP as substrate at Km, pH 7.0, 25° C., I = 0.15 M
Procedure: as §3

Lyp = target: T2, Lyp (Homo sapiens, UniProt Q9Y2R2); assay: PTP activity assay with pNPP as substrate: Lyp; type: biochemical; settings: pNPP as substrate at Km, pH 7.0, 25° C., I = 0.15 M
T2 sequence (Q9Y2R2 1-807): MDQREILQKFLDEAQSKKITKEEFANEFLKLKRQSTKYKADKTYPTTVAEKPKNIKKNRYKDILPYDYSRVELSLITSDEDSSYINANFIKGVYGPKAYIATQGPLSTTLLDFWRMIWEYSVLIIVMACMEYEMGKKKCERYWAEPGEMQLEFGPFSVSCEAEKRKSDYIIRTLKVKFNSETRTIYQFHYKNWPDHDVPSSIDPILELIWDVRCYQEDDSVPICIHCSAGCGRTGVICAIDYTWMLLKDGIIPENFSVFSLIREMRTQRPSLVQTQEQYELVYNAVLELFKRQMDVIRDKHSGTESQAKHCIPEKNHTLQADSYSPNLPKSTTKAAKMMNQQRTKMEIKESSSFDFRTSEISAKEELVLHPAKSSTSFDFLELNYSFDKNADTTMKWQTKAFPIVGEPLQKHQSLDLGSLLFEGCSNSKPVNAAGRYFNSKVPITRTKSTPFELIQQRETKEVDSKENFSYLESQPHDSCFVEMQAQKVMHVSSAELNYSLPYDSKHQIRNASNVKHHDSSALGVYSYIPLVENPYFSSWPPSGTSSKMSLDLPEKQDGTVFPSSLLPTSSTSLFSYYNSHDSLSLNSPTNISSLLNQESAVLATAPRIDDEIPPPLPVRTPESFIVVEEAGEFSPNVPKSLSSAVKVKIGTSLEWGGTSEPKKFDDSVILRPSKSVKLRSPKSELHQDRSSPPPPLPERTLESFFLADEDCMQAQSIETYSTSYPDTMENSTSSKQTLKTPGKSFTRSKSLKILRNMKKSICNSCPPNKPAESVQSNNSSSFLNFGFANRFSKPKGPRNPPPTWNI
Procedure: as §3

VHR = VHR (Homo sapiens, UniProt P51452); assay: PTP activity assay with pNPP as substrate: VHR; type: biochemical; settings: pNPP as substrate at Km, pH 7.0, 25° C., I = 0.15 M
Procedure: as §3

[2] = test system: human primary T-cell tyrosine phosphorylation; settings: Shim et al., 2002, cited from earlier work
[3] = test system: TCR-mediated ERK1/2 activation in Jurkat T cells; assay: Anti-CD3 (TCR) induced ERK1/2 activation in Jurkat T cells, immunoblot; type: cell-based; settings: 2 hours pretreatment, anti-CD3 stimulation
Procedure: as §1, §2

SHP1, sequence (P29350 whole entry): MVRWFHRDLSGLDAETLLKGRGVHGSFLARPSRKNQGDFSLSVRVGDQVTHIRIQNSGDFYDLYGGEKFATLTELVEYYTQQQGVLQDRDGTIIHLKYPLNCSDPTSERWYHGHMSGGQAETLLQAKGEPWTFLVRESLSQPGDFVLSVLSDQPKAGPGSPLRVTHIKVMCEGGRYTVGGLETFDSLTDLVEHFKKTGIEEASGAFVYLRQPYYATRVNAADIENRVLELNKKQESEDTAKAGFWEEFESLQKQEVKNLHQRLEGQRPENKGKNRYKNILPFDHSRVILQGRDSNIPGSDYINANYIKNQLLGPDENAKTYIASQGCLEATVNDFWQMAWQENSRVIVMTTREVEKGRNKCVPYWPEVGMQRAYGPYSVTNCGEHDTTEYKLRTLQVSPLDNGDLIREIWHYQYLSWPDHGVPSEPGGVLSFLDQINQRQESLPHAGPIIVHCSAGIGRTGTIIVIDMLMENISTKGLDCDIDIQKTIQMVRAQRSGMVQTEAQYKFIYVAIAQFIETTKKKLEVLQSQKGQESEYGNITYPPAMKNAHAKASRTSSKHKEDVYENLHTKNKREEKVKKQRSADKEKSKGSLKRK
PTPα, sequence (P18433 20-802): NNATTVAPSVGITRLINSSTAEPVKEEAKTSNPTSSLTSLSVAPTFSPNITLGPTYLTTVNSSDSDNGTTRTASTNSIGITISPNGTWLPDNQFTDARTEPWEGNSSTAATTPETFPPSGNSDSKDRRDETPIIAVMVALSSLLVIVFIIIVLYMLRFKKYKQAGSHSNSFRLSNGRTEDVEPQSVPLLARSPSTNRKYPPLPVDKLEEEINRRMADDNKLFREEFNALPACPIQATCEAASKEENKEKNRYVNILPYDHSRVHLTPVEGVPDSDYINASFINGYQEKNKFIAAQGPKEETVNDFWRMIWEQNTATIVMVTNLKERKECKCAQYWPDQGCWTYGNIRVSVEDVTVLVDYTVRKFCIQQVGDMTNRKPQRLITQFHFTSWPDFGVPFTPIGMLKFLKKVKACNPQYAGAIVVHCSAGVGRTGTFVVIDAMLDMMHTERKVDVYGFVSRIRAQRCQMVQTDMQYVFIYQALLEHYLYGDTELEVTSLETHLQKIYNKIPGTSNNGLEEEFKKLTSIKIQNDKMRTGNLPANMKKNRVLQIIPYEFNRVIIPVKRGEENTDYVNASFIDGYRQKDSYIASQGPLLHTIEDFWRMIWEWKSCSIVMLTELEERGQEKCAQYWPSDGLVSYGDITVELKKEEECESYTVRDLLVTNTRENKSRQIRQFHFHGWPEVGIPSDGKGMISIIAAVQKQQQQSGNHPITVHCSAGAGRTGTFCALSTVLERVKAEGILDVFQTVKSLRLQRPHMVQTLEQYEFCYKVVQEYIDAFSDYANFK
VHR, sequence (P51452 whole entry, species assumed): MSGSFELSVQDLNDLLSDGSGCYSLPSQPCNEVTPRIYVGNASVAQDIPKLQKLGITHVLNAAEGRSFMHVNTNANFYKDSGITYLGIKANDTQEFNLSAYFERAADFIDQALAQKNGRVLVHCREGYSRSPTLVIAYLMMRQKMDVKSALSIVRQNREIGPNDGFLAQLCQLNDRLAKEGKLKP

For tautomycetin [TTN], the IC50 (SHP1) was 14.6 µM, the “effect on TCR-mediated tyrosine phosphorylation” value [1] was “efficiently attenuated” and the “mode of inhibition of the SHP2-catalyzed reaction” value (SHP2; Lineweaver-Burk, FIG. 2) was “competitive inhibitors”. The Ki (SHP2; pNPP, 25° C., pH 7.0) was 1.6 ± 0.1 µM, the IC50 (PTPα) was greater than 50 µM and the IC50 (Lyp) was 20 µM. The IC50 (VHR) was greater than 50 µM, the “concentration inhibiting human primary T-cell tyrosine phosphorylation” value [2] was 1 µg/mL and the “concentration inhibiting human primary T-cell tyrosine phosphorylation” value ([2]; same value converted) was 1.65 µM. The “effect on TCR-mediated ERK1/2 activation” value [3] was “strongly reduced”.
